Laboratory results as given in patent US4108991A, “N-aminosulfenyl derivatives of aldicarb” (priority 1976, dated 1978).
Where “and” joins values, the source holds several entries; their conditions need not be identical. Equal entries are not always repeated. Where two headings read alike, the source gives them in different places.

What was measured:
[1] = test system: Pea aphid; assay: Residual (7-day) contact activity, pea aphid; assay type: in vivo, Acyrthosiphon pisum [Harris]; settings: Acyrthosiphon pisum, 168 h
Protocol: (§1) Initial Contact Activity: One half gram of test compound was dissolved in 40 ml of acetone and this solution was dispersed in 360 ml of water containing one drop of isooctylphenyl polyethoxyethanol. Aliquots of this solution, which corresponds to 1250 ppm of active ingredient, were diluted with an appropriate amount of water to provide solutions containing various concentrations of active ingredient. Test organisms and techniques were as follows: The activity against the Mexican bean beetle (Epilachna varivestis Muls.) and the southern armyworm (Spodoptera eridania [Cram.]) was evaluated by dipping the leaves of pinto bean plants into the test solution and infesting the leaves with the appropriate immature-form insects when the foiliage had dried; the activity against the pea aphid (Acyrthosiphon pisum [Harris]) was evaluated on broad bean plants whose leaves were dipped before infestation with adult aphids; the activity against two-sotted spider mites (Tetranychus urticae Koch) was evaluated on pinto bean plants whose leaves were dipped after infestation with adult mites; the activity against the milkweed bug (Oncopeltus fasciatus [Dallas]), and the plum curculio (Conotrachelus nenuphar [Herbst]) was evaluated by spraying the test solutions into glass dishes or jars containing the adult insects; the activity against the confused flour beetle (Tribolium confusum duVal) was evaluated by introducing the insects into glass dishes which had been previously sprayed with test solution and allowed to dry. All organisms in the test were maintained in a holding room at 80° F and 50% relative humidity for an exposure period of 48 hours. At the end of this time, the dead and living insects or mites were counted, and the percent kill was calculated.
(§2) Residual Contact Activity: The residual contact activity of the compounds was determined on the same organisms using the techniques described above, except that in each case the treated surface was allowed to dry and was exposed to normal light and air for seven days before introduction of the mites or insects.

[2] = test system: Mexican bean beetle; assay: Systemic activity, soil-watering, Mexican bean beetle; assay type: in vivo, Epilachna varivestis Muls.; settings: Epilachna varivestis, 48 h
Protocol: as §1
Systemic Activity: Systemic activity was measured using a soil-watering technique. Test organisms were Mexican bean beetle, southern armyworm, pea aphid, and mites on plants as described above in this Example. With appropriate precautions to avoid contact of the solution with the test plant surfaces, 25 ml of a test solution, prepared as above to contain the desired amount of active ingredient, were poured evenly over the surface of the soil in which the plant was growing. The treated plants were maintained under normal growing conditions for three days to permit translocation of the toxicant, after which the leaves were infested. Two days after infestation, counts of living and dead insects were made.

[3] = test system: Southern armyworm; assay: Initial contact activity, leaf dip, southern armyworm; assay type: in vivo, Spodoptera eridania [Cram.]
Protocol: as §1

[4] = test system: Two-spotted spider mite; assay: Residual (7-day) contact activity, two-spotted spider mite; assay type: in vivo, Tetranychus urticae Koch
Protocol: as §1, §2

[5] = test system: Pea aphid; assay: Initial contact activity, leaf dip, pea aphid; assay type: in vivo, Acyrthosiphon pisum [Harris]
Protocol: as §1

[6] = test system: Southern armyworm; assay: Residual (7-day) contact activity, southern armyworm; assay type: in vivo, Spodoptera eridania [Cram.]; settings: Spodoptera eridania, 168 h
Protocol: as §1, §2

[7] = test system: Plum curculio; assay: Residual (7-day) contact activity, plum curculio; assay type: in vivo, Conotrachelus nenuphar [Herbst]
Protocol: as §1, §2

[8] = Conotrachelus nenuphar, 168 h, read-out: Percent Kill

With `CNC(=O)ON=CC(C)(C)SC` [Aldicarb, 2-methyl-2-(methylthio)propanal O-(methylcarbamoyl)oxime] the mortality at 156 ppm ([1]; read-out: Percent Kill, residual 7-day, PA, 156 PPM) was 0%, the mortality at 625 ppm ([1]; read-out: Percent Kill, residual 7-day, PA, 625 PPM) was 10% and the mortality at 1250 ppm ([1]; read-out: Percent Kill, residual 7-day, PA, 1250 PPM) was 100%. The mortality at 39 ppm ([2]; read-out: Percent Kill, systemic, BB, 39 PPM) was 100%, the mortality at 156 ppm ([2]; read-out: Percent Kill, systemic, BB, 156 PPM) was 100% and the mortality at 156 ppm ([3]; Spodoptera eridania, foliar, 48 h, read-out: Percent Kill, initial, AW, 156 PPM, 48 hours) was 23%. For the same compound, the mortality at 312 ppm ([3]; Spodoptera eridania, foliar, 48 h, read-out: Percent Kill, initial, AW, 312 PPM, 48 hours) was 0%, the mortality at 625 ppm ([3]; Spodoptera eridania, foliar, 48 h, read-out: Percent Kill, initial, AW, 625 PPM, 48 hours) was 12% and the “Percent Kill” value ([3]; initial, AW, 312 PPM, 48 hours) was 0%. The “Percent Kill” value ([3]; initial, AW, 625 PPM, 48 hours, 2880 min) was 15%, the mortality at 39 ppm ([4]; Tetranychus urticae, 168 h, read-out: Percent Kill, residual 7-day, SM, 39 PPM) was 17% and the mortality at 156 ppm ([4]; Tetranychus urticae, 168 h, read-out: Percent Kill, residual 7-day, SM, 156 PPM) was 91.5%. The mortality at 312 ppm ([4]; Tetranychus urticae, 168 h, read-out: Percent Kill, residual 7-day, SM, 312 PPM) was 97%, the mortality at 1250 ppm ([4]; Tetranychus urticae, 168 h, read-out: Percent Kill, residual 7-day, SM, 1250 PPM) was 98.6% and the “Percent Kill” value ([4]; residual 7-day, SM, 156 PPM) was 90%. It also gave a mortality at 10 ppm ([5]; Acyrthosiphon pisum, foliar, 48 h, read-out: Percent Kill, initial, PA, 10 PPM, 48 hours) of 33%, a mortality at 20 ppm ([5]; Acyrthosiphon pisum, foliar, 48 h, read-out: Percent Kill, initial, PA, 20 PPM, 48 hours) of 35% and a mortality at 156 ppm ([5]; Acyrthosiphon pisum, foliar, 48 h, read-out: Percent Kill, initial, PA, 156 PPM, 48 hours) of 100%. For the same compound, the mortality at 1250 ppm ([5]; Acyrthosiphon pisum, foliar, 48 h, read-out: Percent Kill, initial, PA, 1250 PPM, 48 hours) was 100%, the “Percent Kill” value ([5]; initial, PA, 39 PPM, 48 hours, 2880 min) was 60% and 85% and the “Percent Kill” value ([5]; initial, PA, 156 PPM, 48 hours) was 100%. For the same compound, the mortality at 312 ppm ([6]; read-out: Percent Kill, residual 7-day, AW, 312 PPM) was 0%, the mortality at 625 ppm ([6]; read-out: Percent Kill, residual 7-day, AW, 625 PPM) was 0% and the mortality at 156 ppm [7, 8] was 4.8%. It also gave a mortality at 312 ppm [7, 8] of 32%, a mortality at 625 ppm [7, 8] of 0% and a mortality at 1250 ppm [7, 8] of 0%. The “Percent Kill” value ([7]; residual 7-day, PC, 1250 PPM) was 0%.
For `CSC(C)(C)C=NOC(=O)N(C)SN(C)Cc1ccccc1` [Example I, 2-methyl-2-(methylthio)propanol O-[(N-benzyl-N-methylaminosulfenyl)(methyl)carbamoyl]oxime], the mortality at 156 ppm ([1]; residual 7-day, PA, 156 PPM, read-out: Percent Kill) was 0%, the mortality at 312 ppm ([1]; residual 7-day, PA, 312 PPM, read-out: Percent Kill) was 6.3% and the mortality at 1250 ppm ([1]; residual 7-day, PA, 1250 PPM, read-out: Percent Kill) was 100%. For the same compound, the mortality at 39 ppm ([2]; systemic, BB, 39 PPM, read-out: Percent Kill) was 0%, the mortality at 156 ppm ([2]; systemic, BB, 156 PPM, read-out: Percent Kill) was 75% and the mortality at 156 ppm ([3]; Spodoptera eridania, foliar, 48 h, initial, AW, 156 PPM, 48 hours, read-out: Percent Kill) was 0%. It also gave a mortality at 312 ppm ([3]; Spodoptera eridania, foliar, 48 h, initial, AW, 312 PPM, 48 hours, read-out: Percent Kill) of 24%, a mortality at 625 ppm ([3]; Spodoptera eridania, foliar, 48 h, initial, AW, 625 PPM, 48 hours, read-out: Percent Kill) of 25% and a mortality at 1250 ppm ([3]; Spodoptera eridania, foliar, 48 h, initial, AW, 1250 PPM, 48 hours, read-out: Percent Kill) of 33%. The mortality at 156 ppm ([4]; Tetranychus urticae, 168 h, residual 7-day, SM, 156 PPM, read-out: Percent Kill) was 3.2%, the mortality at 312 ppm ([4]; Tetranychus urticae, 168 h, residual 7-day, SM, 312 PPM, read-out: Percent Kill) was 63% and the mortality at 1250 ppm ([4]; Tetranychus urticae, 168 h, residual 7-day, SM, 1250 PPM, read-out: Percent Kill) was 99.5%. The mortality at 10 ppm ([5]; Acyrthosiphon pisum, foliar, 48 h, initial, PA, 10 PPM, 48 hours, read-out: Percent Kill) was 20%, the mortality at 39 ppm ([5]; Acyrthosiphon pisum, foliar, 48 h, initial, PA, 39 PPM, 48 hours, read-out: Percent Kill) was 62% and the mortality at 156 ppm ([5]; Acyrthosiphon pisum, foliar, 48 h, initial, PA, 156 PPM, 48 hours, read-out: Percent Kill) was 100%. It also gave a mortality at 1250 ppm ([5]; Acyrthosiphon pisum, foliar, 48 h, initial, PA, 1250 PPM, 48 hours, read-out: Percent Kill) of 100%, a mortality at 312 ppm ([6]; residual 7-day, AW, 312 PPM, read-out: Percent Kill) of 0% and a mortality at 1250 ppm ([6]; residual 7-day, AW, 1250 PPM, read-out: Percent Kill) of 91%. It also gave a mortality at 156 ppm ([7]; Conotrachelus nenuphar, 168 h, residual 7-day, PC, 156 PPM, read-out: Percent Kill) of 23%, a mortality at 312 ppm ([7]; Conotrachelus nenuphar, 168 h, residual 7-day, PC, 312 PPM, read-out: Percent Kill) of 43% and a mortality at 1250 ppm ([7]; Conotrachelus nenuphar, 168 h, residual 7-day, PC, 1250 PPM, read-out: Percent Kill) of 20%.
